Assay results reported in patent US20150157659A1, “METHOD OF INDUCING AUTOPHAGY AND ACTIVATING TOLL-LIKE RECEPTOR” (National Tsing Hua University, priority 2013, published 2015).

Tests used:
RAW 264.7 cells [1] = assay: Immunofluorescence microscopy for Beclin 1 and LC3; assay type: cell-based, mouse
Protocol: The cells were fixed and permeabilized as described previously, followed by extensive washing and primary antibody staining (1:100 dilution) for 1 h at 4° C. in the dark. The primary antibody was specific for LC3 (4108, Cell Signaling Technology), Beclin 1 (ab55878, Abcam), TLR4 (14-9924, eBioscience), TLR9 (ab17236, abcam), MyD88 (ab2068, abcam), TRAF6 (ab33915, abcam), phosphorylated NF-κB (3033, Cell Signaling Technology) or IRF3 (sc-15991, Santa Cruz Biotechnology). After washing, the cells were incubated with the goat anti-mouse antibody conjugated with Alexa 488 (for TLR9, Invitrogen), goat anti-rabbit antibody conjugated with Alexa 488 (for LC3, MyD88, TRAF6 and NF-κB, Invitrogen) or donkey anti-goat IgG conjugated with Dylight 488 (for IRF3, Jackson ImmunoResearch) for 1 h at 4° C. in the dark. After washing, the cells were counterstained with 4,6-diamidino-2-phenylindole (DAPI, Vector Labs) and visualized with a confocal microscope (Nikon TE2000 equipped with the confocal upgrade laser kit). Fifty to one hundred cells in the images for LC3 were counted for quantification of LC3+ cells.
Beclin 1 and LC3 are two key proteins associated with the autophagy pathway and are common indicators of autophagy induction. […]

RAW 264.7 cells [2] = assay: Cell death and TUNEL apoptosis of treated macrophages; assay type: cell-based; conditions: LPS 10 μg/ml
RAW 264.7 cells [3] = assay: ELISA of cytokines in supernatant of treated macrophage cells; assay type: cell-based, mouse; conditions: LPS
Protocol: At 24 h post-treatment, the supernatant was collected from the GO-treated cell culture and analyzed using ELISA kits specific for mouse IL-2, IL-10, TNF-α, IFN-β and IFN-γ. The cells were lysed for Western blot using primary antibodies (1:1000 dilution) specific for LC3, Beclin 1 or β-actin (A-2066, Sigma) and the secondary antibody was HRP-conjugated IgG (1:5000 dilution, Amersham Biosciences). The images were developed using the GeneGnome HR scanner (Syngene).

RAW 264.7 cells [4] = assay: Transmission electron microscopy of autophagic vacuoles; assay type: cell-based, mouse; conditions: LPS 10 μg/ml
Protocol: The cells were harvested, centrifuged (215×g, 10 min), washed with cold PBS and fixed with 2.5% glutaraldehyde (in 0.2 M sodium cacodylate, pH 7.4). The samples were then fixed in 1% OsO4 for 1 h at 4° C., dehydrated with increasing concentrations of ethanol, embedded in spur resin and sectioned. The ultrathin sections were stained with uranyl acetate and observed under the TEM.

RAW264.7 = assay: Cell morphology and vacuoles under phase contrast microscope after GO treatment; assay type: cell-based, mouse; conditions: LPS 10 μg/ml, 24 h
Protocol: The mouse macrophage cell line RAW264.7 was maintained in Dulbecco's modified Eagles medium (DMEM, Gibco) containing 10% fetal bovine serum (FBS, Gibco) and subcultured upon 70-80% confluency. For GO treatment, the cells were seeded to 6-well plates (3×10^5 cells/cm^2) overnight and cultured using the medium supplemented with GO at final concentrations of 5 or 100 μg/ml for 24 h. In parallel, the cells were treated with LPS (10 μg/ml, Sigma) for 24 h as the positive control. After the treatment, the cell morphology and vacuoles were observed under the phase contrast microscope.
To examine how GO nanosheets influenced the macrophage, RAW 264.7 cells were incubated with small GO at either 5 μg/ml (designated as GO5 group) or 100 μg/ml (designated as GO100 group) for 24 h.

Compound	GO100-triggered formation of LC3+ aggregate dots (RAW 264.7 cells [1]; pre-treatment of cells with the autophagy inhibitor)	cell death (RAW 264.7 cells [2])	cytokine secretion (RAW 264.7 cells [3])	autophagic vacuoles (AV) by TEM (RAW 264.7 cells [4])	formation of vacuoles inside the cells (RAW264.7)	Beclin 1 and LC3 dots by immunofluorescence (RAW 264.7 cells [1]; LPS-treated cells)
Cn1cnc(N)c2ncnc1-2 [3-MA, 3-methyl adenine]	diminished the GO100-triggered formation of LC3+ aggregate dots					
lipopolysaccharides [LPS]		also observed in the LPS-treated cells	cytokine secretion triggered by LPS	triggered more prominent AV	also observed in the LPS-treated cells	also observed in the LPS-treated cells
